Key:
[1] = test system: mouse model of diabetes (streptozotocin-induced); assay: Streptozotocin-induced diabetes mouse model, blood glucose 4 hours post treatment; type: in vivo, mice (C57BL/6)
Procedure: Eight week old male C57BL/6 strain of mice were used. The mice were fed on standard diet and water ad libitum. Diabetes was induced by intraperitoneal injection of 60 mg/kg of a freshly prepared streptozotocin (STZ) dissolved in 0.1 M cold citrate buffer at a pH of 4.5. Body weight, food, and fluid intake were monitored daily. Induction was continued for 7 consecutive days until chronic polydipsia and polyuria was established. Post-prandial blood glucose levels were measured by blood glucose strips, and mice with levels higher than 400 mg/dL were defined as chronically diabetic and chosen for experiments. Test animals were treated with product by oral gavage. For a given product, n=6 animals were treated. Blood samples for whole blood glucose were obtained from the tail tip 4 hours post treatment, and blood glucose levels were measured by Roche blood glucose strips. Means and standard error of the means were calculated. Differences in mean post-prandial blood glucose 4 hours post treatment of animals treated with product and untreated control […] diabetic animals (n=6) were calculated. Relative clinical effects of the products tested were determined by comparing the difference in blood glucose of treated relative to untreated controls.

SARS-COV-2 [2] = assay: Human ACE2 transgenic COVID-19 mouse model (body weight, survival); type: in vivo, hACE2 transgenic mice; conditions: Daily
SARS-COV-2 [3] = assay: SARS-COV-2 replication in Vero E6 cells in vitro (viral load by RT-PCR); type: cell-based; conditions: Severe acute respiratory syndrome coronavirus 2, Vero C1008; FIG. 3; cells treated at 1 μM final concentration; complexes at 1:1 molar ratio; read-out: Inhibition of SARS-COV-2 replication over untreated
[4] = 25 mg/kg oral gavage, n=6, glucose levels given in mg/dL
[5] = 200 mg/kg, Pretreatment to Day 7

Q: Which “Difference in 4 h Blood Glucose vs. Untreated” value [1, 4] does the source give for `OC[C@H]1O[C@@H]2O[C@H]3[C@H](O)[C@@H](O)[C@@H](O[C@H]4[C@H](O)[C@@H](O)[C@@H](O[C@H]5[C@H](O)[C@@H](O)[C@@H](O[C@H]6[C@H](O)[C@@H](O)[C@@H](O[C@H]7[C@H](O)[C@@H](O)[C@@H](O[C@H]8[C@H](O)[C@@H](O)[C@@H](O[C@H]1[C@H](O)[C@H]2O)O[C@@H]8CO)O[C@@H]7CO)O[C@@H]6CO)O[C@@H]5CO)O[C@@H]4CO)O[C@@H]3CO` [Betacyclodextrin alone, beta-cyclodextrin] here?
A: 35.46

Q: `Cc1cnc(C(=O)NCCc2ccc(S(=O)(=O)NC(=O)NC3CCCCC3)cc2)cn1` [Glipizide] was tested. Which “Difference in 4 h Blood Glucose vs. Untreated” value ([1]; 5 mg/kg oral gavage, n=6) did it give?
A: 198.0

Q: What does the source list for `CN(C)C(=N)N=C(N)N` [Metformin]?
A: Difference in 4 h Blood Glucose vs. Untreated ([1]; 200 mg/kg oral): 173.9; Difference in 4 h Blood Glucose vs. Untreated ([1]; 250 mg/kg oral gavage, n=6): 181.7

Q: What does the source list for `O=c1c(O)c(-c2ccc(O)c(O)c2)oc2cc(O)cc(O)c12` [Quercitin]?
A: Survival (SARS-COV-2 [2]; 66 mg/kg, Pretreatment to Day 7): 80%; Survival (SARS-COV-2 [2]; [5]): 100%

Q: Which Survival (SARS-COV-2 [2]; 50 mg/kg, Day 1 post-treatment to 7) does the source give for `CCC(CC)COC(=O)[C@H](C)N[P@](=O)(OC[C@H]1O[C@@](C#N)(c2ccc3c(N)ncnn23)[C@H](O)[C@@H]1O)Oc1ccccc1` [Remdesivir] here?
A: 100%

Q: And the Survival (SARS-COV-2 [2]; [5])?
A: 100%

Q: What does the source list for `COc1cc(/C=C/C(=O)CC(=O)/C=C/c2ccc(O)c(OC)c2)ccc1O` [Unconjugated Curcumin, curcumin]?
A: Difference in 4 h Blood Glucose vs. Untreated ([1]; 5 mg/kg oral gavage, n=6): 29.8; Difference in 4 h Blood Glucose vs. Untreated [1, 4]: 60.22

Q: Which inhibition at 1 µM (SARS-COV-2 [3]) does the source give for `C[C@@H]1O[C@@H](OC[C@H]2O[C@@H](Oc3c(-c4ccc(O)c(O)c4)oc4cc(O)cc(O)c4c3=O)[C@H](O)[C@@H](O)[C@@H]2O)[C@H](O)[C@H](O)[C@H]1O` [rutin] here?
A: ~25%

Q: What does the source list for Insulin?
A: Difference in 4 h Blood Glucose vs. Untreated ([1]; 0.5 IU sc): 203.2; Difference in 4 h Blood Glucose vs. Untreated ([1]; 1 IU sc): 236.2

— patent US20240350660A1, “Compositions and Methods for Increasing Bioavailability Using Cyclodextrin Modification” (priority 2021, published 2024)
